pIC50: −log10 of the molar value.

mitochondrial RNA-polymerase (POLRMT), sequence (Q8BKF1 42-1207): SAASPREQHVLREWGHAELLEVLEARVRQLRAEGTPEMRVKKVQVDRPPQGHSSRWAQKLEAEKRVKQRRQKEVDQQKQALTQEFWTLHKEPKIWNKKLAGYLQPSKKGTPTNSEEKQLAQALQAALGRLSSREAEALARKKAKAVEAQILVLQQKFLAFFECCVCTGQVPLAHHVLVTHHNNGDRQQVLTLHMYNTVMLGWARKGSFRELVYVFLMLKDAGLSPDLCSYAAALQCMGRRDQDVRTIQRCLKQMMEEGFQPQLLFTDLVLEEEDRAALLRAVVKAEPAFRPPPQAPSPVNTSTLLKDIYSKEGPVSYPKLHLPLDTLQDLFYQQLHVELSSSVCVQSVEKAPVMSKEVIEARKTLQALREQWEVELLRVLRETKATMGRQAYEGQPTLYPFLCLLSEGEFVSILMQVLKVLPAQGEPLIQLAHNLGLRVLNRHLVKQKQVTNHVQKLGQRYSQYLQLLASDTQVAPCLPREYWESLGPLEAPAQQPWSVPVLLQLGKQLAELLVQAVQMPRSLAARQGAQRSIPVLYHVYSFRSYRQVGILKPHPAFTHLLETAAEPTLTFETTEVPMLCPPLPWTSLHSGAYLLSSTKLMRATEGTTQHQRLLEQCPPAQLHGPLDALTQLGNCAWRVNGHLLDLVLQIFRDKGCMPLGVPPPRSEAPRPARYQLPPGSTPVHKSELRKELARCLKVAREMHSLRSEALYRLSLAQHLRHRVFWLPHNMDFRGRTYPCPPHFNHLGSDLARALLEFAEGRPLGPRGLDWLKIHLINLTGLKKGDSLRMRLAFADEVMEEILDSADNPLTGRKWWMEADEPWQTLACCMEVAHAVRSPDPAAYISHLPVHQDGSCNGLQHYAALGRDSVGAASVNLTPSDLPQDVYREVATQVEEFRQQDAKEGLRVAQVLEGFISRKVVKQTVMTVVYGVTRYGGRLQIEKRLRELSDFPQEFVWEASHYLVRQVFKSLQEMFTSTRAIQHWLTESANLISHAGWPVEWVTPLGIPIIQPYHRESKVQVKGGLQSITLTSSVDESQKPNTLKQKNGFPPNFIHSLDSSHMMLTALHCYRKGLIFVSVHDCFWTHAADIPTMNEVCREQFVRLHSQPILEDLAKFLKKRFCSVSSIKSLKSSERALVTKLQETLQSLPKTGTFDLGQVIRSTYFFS

In the assay the target is mitochondrial RNA-polymerase (POLRMT) (Mus musculus, UniProt Q8BKF1). As to the kind of experiment: Homogeneous TR-FRET assay for mitochondrial transcription activity. In kind it is biochemical. The note with it: homogeneous TR-FRET assay according to Example 4; read-out: mitochondrial transcription activity (IC-50). An excerpt:
The TR-FRET assay was basically conducted as described in WO 2016/193231A1, especially as described in example 1 (hereby incorporated by reference). With respect to the background of the mitochondrial transcription it is referred to Falkenberg et al. (2002) and Posse et al. (Posse et al. 2015). The method monitors the activity of mitochondrial RNA-polymerase via detection of the formation of its product, a 407 bp long RNA sequence. Detection of the product is facilitated by hybridization of two DNA-oligonucleotide probes to specific and adjacent sequences within the RNA product sequence. Upon annealing of the probes, two fluorophores that are coupled directly to an acceptor nucleotide probe (ATT0647, 5′) or introduced via a coupled streptavidin interacting with a biotinylated donor nucleotide probe on the other side (Europium cryptate, 3) are brought into sufficient proximity to serve as a fluorescence-donor-acceptor pair as generally described in Walters and Namchuk (2003). Thus, a FRET signal at 665 nm is generated upon excitation at 340 nm.
Briefly, the protocol described here was applied for screening and activity determination in a low-volume 384-well microtiter plate with non-binding surface. For high-throughput application in the 1536-well microtiter plate format, volumes of the reagent mixes were adjusted, maintaining the volumetric ratio. Proteins POLRMT (NM_172551.3), TFAM (NM_009360.4) and TFB2M (NM_008249.4) were diluted from their stocks to working concentrations of 150 nM, 1.8 μM and 330 nM respectively, in a dilution buffer containing 100 mM Tris-HCl pH 8.0, 200 mM NaCl, 10% (v/v) glycerole, 2 mM glutathione (GSH), 0.5 mM EDTA and 0.1 mg/mL BSA. Protein dilutions and template DNA, comprising a pUC18 plasmid encoding the mitochondrial light strand promoter, restriction linearized proximal to the promoter 3′-end (pUC-LSP), were mixed at the twofold final assay-concentration in a reaction buffer, containing 10 mM Tris-HCl pH 7.5, 10 mM MgCl2, 40 mM NaCl, 2 mM GSH, 0.01% (w/v) Tween-20 and 0.1 mg/mL BSA.
5 μL of this mix were dispensed, depending on the chosen microtiter plate format, using multi-channel pipettes or a Multidrop® dispenser (Thermo Fisher Scientific, Waltham Mass.) into the wells of a microtiter plate and incubated at room temperature (RT) for 10 min. Chemical compounds under scrutiny in the assay were applied using contact-free acoustic droplet-dispensing (Echo520® Labcyte Inc., Sunnyvale Calif.) from 10 mM compound stocks in 100% DMSO, to a final concentration of 10 μM or in serial dilution series of the required concentration range. Equal amounts of DMSO without any compound were added to positive control samples, followed by an incubation step at RT for 10 min.
The enzymatic reaction was started by the addition of 5 μL of a mix of dNTPs in reaction buffer to a final concentration of 500 μM each. No nucleotide mix was added to negative control samples. The content of the wells was mixed using a VarioTeleshaker™ (Thermo Fisher Scientific, Waltham Mass.) at 1500 rpm for 45 sec after which the microtiter plate was centrifuged at 500×g for 1 min. The samples were incubated for 2 h at RT with humidity control to avoid evaporation. The detection reagents were prepared in a buffer that was composed, such that the enzymatic reaction was terminated due to chelating of Mg-ions and increased ionic strength, containing 50 mM Tris-HCl pH 7.5, 700 mM NaCl, 20 mM EDTA, and 0.01% (w/v) Tween-20. Importantly Eu-cryptate-coupled streptavidin had to be preincubated with a 100-fold molar excess of a random sequence oligonucleotide for 10 min at RT in the dark to block unspecific binding of single stranded RNA to the protein. Subsequently, the blocked streptavidin(-Eu) was mixed with the DNA-probes on ice and kept away from light until use. […]
A general note: Time-resolved FRET reads energy transfer from a long-lived donor to a nearby acceptor.
`CCCOC(=O)COc1cc2oc(=O)cc(-c3ccccc3)c2cc1Cl` [Compound 92, propyl 2-(6-chloro-2-oxo-4-phenyl-chromen-7-yl)oxyacetate]: the pIC50 was 5.00 to 6.00. For the compound `CNC(=O)C(C)Oc1ccc2c(-c3ccccc3)cc(=O)oc2c1` (stereo not shown) [Compound 26, N-methyl-2-(2-oxo-4-phenyl-chromen-7-yl)oxy-propanamide], the pIC50 is 6.00 to 7.00. With `CCOC(=O)C(C)Oc1cc(F)c2c(-c3ccccc3)cc(=O)oc2c1` (stereo not shown) [Compound 87, ethyl 2-(5-fluoro-2-oxo-4-phenyl-chromen-7-yl)oxypropanoate], the pIC50 is 5.00 to 6.00. The figure for `O=C(COc1cc2oc(=O)cc(-c3ccccc3)c2cc1Cl)Nc1ccc(CCO)cc1` [Compound 57, 2-(6-chloro-2-oxo-4-phenyl-chromen-7-yl)oxy-N-[4-(2-hydroxyethyl)phenyl]acetamide] is 6.00 to 7.00; for `NC(=O)COc1cc2oc(=O)cc(-c3ccccc3)c2cc1Cl` [Compound 84, 2-(6-chloro-2-oxo-4-phenyl-chromen-7-yl)oxyacetamide] it is 5.00 to 6.00. In the case of `CC(Oc1cc2oc(=O)cc(-c3ccccc3)c2cc1Cl)C(=O)Nc1ccc(CCO)cc1` (stereo not shown) [Compound 17, 2-(6-chloro-2-oxo-4-phenyl-chromen-7-yl)oxy-N-[4-(2-hydroxyethyl)phenyl]propanamide], the pIC50 was 6.00 to 7.00.

On to `CC(Oc1ccc2c(-c3ccccc3)cc(=O)oc2c1)C(=O)OCc1ccccc1` (stereo not shown) [Compound 93, benzyl 2-(2-oxo-4-phenyl-chromen-7-yl)oxypropanoate], for which the pIC50 was 5.00 to 6.00. The figure for `CCOC(=O)C1CCCN(C(=O)COc2ccc3c(-c4ccccc4)cc(=O)oc3c2)C1` (stereo not shown) [Compound 43, ethyl 1-[2-(2-oxo-4-phenyl-chromen-7-yl)oxyacetyl]piperidine-3-carboxylate] is 5.00 to 6.00; for `CC(Oc1ccc2c(-c3ccccc3)cc(=O)oc2c1)C(=O)N1CCCC(C(N)=O)C1` (stereo not shown) [Compound 60, 1-[2-(2-oxo-4-phenyl-chromen-7-yl)oxypropanoyl]piperidine-3-carboxamide] it is 5.00 to 6.00; for `CCN(CC)C(=O)COc1cc2oc(=O)cc(-c3ccccc3)c2cc1Cl` [Compound 47, 2-(6-chloro-2-oxo-4-phenyl-chromen-7-yl)oxy-N,N-diethyl-acetamide] it is 6.00 to 7.00. The figure for `CC(Oc1ccc2c(-c3ccccc3)cc(=O)oc2c1)C(=O)O` (stereo not shown) [Compound 51, 2-(2-oxo-4-phenyl-chromen-7-yl)oxypropanoic acid] is 6.00 to 7.00; for `CC(Oc1cc2oc(=O)cc(-c3ccccc3)c2cc1Cl)C(=O)N1CCCC(C(=O)O)C1` (stereo not shown) [Compound 13, 1-[2-(6-chloro-2-oxo-4-phenyl-chromen-7-yl)oxypropanoyl]piperidine-3-carboxylic acid] it is 6.00 to 7.00; for `CC(Oc1ccc2c(-c3ccccc3)cc(=O)oc2c1)C(=O)N(C)c1ccc(CCO)cc1` (stereo not shown) [Compound 18, N-[4-(2-hydroxyethyl)phenyl]-N-methyl-2-(2-oxo-4-phenyl-chromen-7-yl)oxy-propanamide] it is 6.00 to 7.00. Take `CC(Oc1ccc2c(-c3ccccc3)cc(=O)oc2c1)C(=O)Nc1ccccc1` (stereo not shown) [Compound 25, 2-(2-oxo-4-phenyl-chromen-7-yl)oxy-N-phenyl-propanamide]: the pIC50 was 6.00 to 7.00. As to `COC(=O)COc1ccc2c(-c3ccccc3)cc(=O)oc2c1C` [Compound 91, methyl 2-(8-methyl-2-oxo-4-phenyl-chromen-7-yl)oxyacetate], the pIC50 is 5.00 to 6.00. Turning to `CC(Oc1cc(F)c2c(-c3ccccc3)cc(=O)oc2c1)C(=O)N(C)C` (stereo not shown) [Compound 80, 2-(5-fluoro-2-oxo-4-phenyl-chromen-7-yl)oxy-N,N-dimethyl-propanamide], the pIC50 is 5.00 to 6.00. As for `COC(=O)C(C)Oc1cc2oc(=O)cc(-c3ccccc3)c2cc1Cl` (stereo not shown) [Compound 58, methyl 2-(6-chloro-2-oxo-4-phenyl-chromen-7-yl)oxypropanoate], the pIC50 is 6.00 to 7.00.

As for `CCOCCOC(=O)COc1ccc2c(-c3ccccc3)cc(=O)oc2c1` [Compound 73, 2-ethoxyethyl 2-(2-oxo-4-phenyl-chromen-7-yl)oxyacetate], the pIC50 was 5.00 to 6.00. On to `O=C(COc1cc2oc(=O)cc(-c3ccccc3)c2cc1Cl)NCCN1CCOCC1` [Compound 83, 2-(6-chloro-2-oxo-4-phenyl-chromen-7-yl)oxy-N-(2-morpholinoethyl)acetamide], for which the pIC50 is 5.00 to 6.00. The figure for `CC(Oc1ccc2c(-c3ccccc3)cc(=O)oc2c1)C(=O)Nc1ccccn1` (stereo not shown) [Compound 6, 2-(2-oxo-4-phenyl-chromen-7-yl)oxy-N-(2-pyridyl)propanamide] is 6.00 to 7.00; for `CC(Oc1cc2oc(=O)cc(-c3ccccc3)c2cc1Cl)C(=O)Nc1ccccn1` (stereo not shown) [Compound 11, 2-(6-chloro-2-oxo-4-phenyl-chromen-7-yl)oxy-N-(2-pyridyl)propanamide] it is 6.00 to 7.00. Take `CCOC(=O)[C@H]1CCCN(C(=O)[C@@H](C)Oc2ccc3c(-c4ccccc4)cc(=O)oc3c2)C1` [Compound 35, ethyl (3S)-1-[(2R)-2-(2-oxo-4-phenyl-chromen-7-yl)oxypropanoyl]piperidine-3-carboxylate]: the pIC50 is 6.00 to 7.00.

`O=C(COc1cc2oc(=O)cc(-c3ccccc3)c2cc1Cl)N1CCOCC1` [Compound 45, 6-chloro-7-(2-morpholino-2-oxo-ethoxy)-4-phenyl-chromen-2-one]: the pIC50 was 5.00 to 6.00. The figure for `CC(Oc1ccc2c(-c3ccccc3)cc(=O)oc2c1)C(N)=O` (stereo not shown) [Compound 67, 2-(2-oxo-4-phenyl-chromen-7-yl)oxypropanamide] is 5.00 to 6.00; for `CC(Oc1ccc2c(-c3ccccc3)cc(=O)oc2c1)C(=O)N1CCC[C@H](C(=O)O)C1` (stereo partly drawn) [Compound 36, (3S)-1-[2-(2-oxo-4-phenyl-chromen-7-yl)oxypropanoyl]piperidine-3-carboxylic acid] it is 6.00 to 7.00; for `COC(=O)[C@@H]1CCCN(C(=O)C(C)Oc2ccc3c(-c4ccccc4)cc(=O)oc3c2)C1` (stereo partly drawn) [Compound 38, methyl (3R)-1-[2-(2-oxo-4-phenyl-chromen-7-yl)oxypropanoyl]piperidine-3-carboxylate] it is 5.00 to 6.00.

In the case of `CCOC(=O)COc1ccc2c(-c3ccccc3)cc(=O)oc2c1` [Compound 81, ethyl 2-(2-oxo-4-phenyl-chromen-7-yl)oxyacetate], the pIC50 was 5.00 to 6.00. The figure for `CCOC(=O)[C@H]1CCCN(C(=O)C(C)Oc2ccc3c(-c4ccccc4)cc(=O)oc3c2)C1` (mixture of isomers) [Compound 64, ethyl rac-(3S)-1-[2-(2-oxo-4-phenyl-chromen-7-yl)oxypropanoyl]piperidine-3-carboxylate] is 5.00 to 6.00; for `O=C(COc1cc2oc(=O)cc(-c3ccccc3)c2cc1Cl)NC1CC1` [Compound 46, 2-(6-chloro-2-oxo-4-phenyl-chromen-7-yl)oxy-N-cyclopropyl-acetamide] it is 6.00 to 7.00. Regarding `O=C(COc1cc2oc(=O)cc(-c3ccccc3)c2cc1Cl)NC1CCCCCCC1` [Compound 86, 2-(6-chloro-2-oxo-4-phenyl-chromen-7-yl)oxy-N-cyclooctyl-acetamide], the pIC50 is 5.00 to 6.00. On to `CC(Oc1cc2oc(=O)cc(-c3ccccc3)c2cc1Cl)C(=O)Nc1ccc(CCCO)cc1` (stereo not shown) [Compound 28, 2-(6-chloro-2-oxo-4-phenyl-chromen-7-yl)oxy-N-[4-(3-hydroxypropyl)phenyl]propanamide], for which the pIC50 is 6.00 to 7.00.
